A short description of data set [1]: Drug uptake in brain of mouse xenografted with human NCI-H2122 cells at 50 mg/kg, ip after 3 hrs by LC-MS/MS analysis. Particulars: read-out: Drug uptake. The format is ADME, organism-based. In general terms: A xenograft is tissue or cells of one species grown in another, often human tumour cells in immunodeficient mice.
Data set [2] in a line: Drug uptake in heart of mouse xenografted with human NCI-H2122 cells at 50 mg/kg, ip after 3 hrs by LC-MS/MS analysis. The data set is classed as ADME, organism-based. The note with it: read-out: Drug uptake.
The nature of data set [3]: Drug uptake in kidney of mouse xenografted with human NCI-H2122 cells at 50 mg/kg, ip after 3 hrs by LC-MS/MS analysis. The format is ADME, organism-based. The note with it: read-out: Drug uptake.
The nature of data set [4]: Drug uptake in liver of mouse xenografted with human NCI-H2122 cells at 50 mg/kg, ip after 3 hrs by LC-MS/MS analysis. The format is ADME, organism-based. The note with it: read-out: Drug uptake.
A short description of data set [5]: Drug uptake in lungs of mouse xenografted with human NCI-H2122 cells at 50 mg/kg, ip after 3 hrs by LC-MS/MS analysis. The format is ADME, organism-based. Particulars: lung, read-out: Drug uptake.
The nature of data set [6]: Drug uptake in tumor of mouse xenografted with human NCI-H2122 cells at 50 mg/kg, ip after 3 hrs by LC-MS/MS analysis. The format is ADME, organism-based, Neoplasm. Particulars: read-out: Drug uptake.
The nature of data set [7]: Plasma concentration in mouse xenografted with human NCI-H2122 cells at 50 mg/kg, ip after 3 hrs by LC-MS/MS analysis. The data set is classed as ADME, organism-based.
The nature of data set [8]: Drug metabolism in CD1 mouse liver microsomes assessed as CYP450-mediated M6 metabolite formation at 16.7 uM up to 60 mins in presence of NADPH by LC-MS/MS analysis. The format is ADME. Particulars: 1 h. (Microsomes from liver hold many membrane-bound enzymes, among them those of drug oxidation.)
The nature of data set [9]: Drug metabolism in CD1 mouse liver microsomes assessed as CYP450-mediated M7 metabolite formation at 16.7 uM up to 60 mins in presence of NADPH by LC-MS/MS analysis. The format is ADME. The note with it: 1 h.
A short description of data set [10]: Drug metabolism in mouse xenografted with human NCI-H2122 cells assessed as M6 metabolite formation in plasma at 50 mg/kg, ip after 3 hrs by LC-MS/MS analysis. Particulars: in vivo. The data set is classed as ADME, organism-based.
Data set [11] can be described thus: Drug metabolism in mouse xenografted with human NCI-H2122 cells assessed as M6 metabolite formation in tumor at 50 mg/kg, ip after 3 hrs by LC-MS/MS analysis. The note with it: in vivo. The data set is classed as ADME, organism-based, Neoplasm.
Data set [12] is described as follows: Drug metabolism in mouse xenografted with human NCI-H2122 cells assessed as M6 metabolite formation in kidney at 50 mg/kg, ip after 3 hrs by LC-MS/MS analysis. The data set is classed as ADME, organism-based. Particulars: in vivo.
A short description of data set [13]: Drug metabolism in mouse xenografted with human NCI-H2122 cells assessed as M6 metabolite formation in liver at 50 mg/kg, ip after 3 hrs by LC-MS/MS analysis. The data set is classed as ADME, organism-based. Particulars: in vivo.
Data set [14] is described as follows: Drug metabolism in mouse xenografted with human NCI-H2122 cells assessed as M6 metabolite formation in lungs at 50 mg/kg, ip after 3 hrs by LC-MS/MS analysis. The format is ADME, organism-based, Lung. Particulars: in vivo.
Data set [15] is described as follows: Drug metabolism in mouse xenografted with human NCI-H2122 cells assessed as M6 metabolite formation in heart at 50 mg/kg, ip after 3 hrs by LC-MS/MS analysis. The format is ADME, organism-based. Particulars: in vivo.
A short description of data set [16]: Drug metabolism in mouse xenografted with human NCI-H2122 cells assessed as M7 metabolite formation in plasma at 50 mg/kg, ip after 3 hrs by LC-MS/MS analysis. Particulars: in vivo. The data set is classed as ADME, organism-based.
Data set [17] is described as follows: Drug metabolism in mouse xenografted with human NCI-H2122 cells assessed as M7 metabolite formation in brain at 50 mg/kg, ip after 3 hrs by LC-MS/MS analysis. The data set is classed as ADME, organism-based. The note with it: in vivo.
A short description of data set [18]: Drug metabolism in mouse xenografted with human NCI-H2122 cells assessed as M7 metabolite formation in tumor at 50 mg/kg, ip after 3 hrs by LC-MS/MS analysis. The format is ADME, organism-based, Neoplasm. Particulars: in vivo.
Data set [19] is described as follows: Drug metabolism in mouse xenografted with human NCI-H2122 cells assessed as M7 metabolite formation in kidney at 50 mg/kg, ip after 3 hrs by LC-MS/MS analysis. The format is ADME, organism-based. Particulars: in vivo.
The nature of data set [20]: Drug metabolism in mouse xenografted with human NCI-H2122 cells assessed as M7 metabolite formation in liver at 50 mg/kg, ip after 3 hrs by LC-MS/MS analysis. The data set is classed as ADME, organism-based. The note with it: in vivo.
A short description of data set [21]: Drug metabolism in mouse xenografted with human NCI-H2122 cells assessed as M7 metabolite formation in lungs at 50 mg/kg, ip after 3 hrs by LC-MS/MS analysis. The data set is classed as ADME, organism-based, Lung. The note with it: in vivo.
Data set [22] can be described thus: Drug metabolism in mouse xenografted with human NCI-H2122 cells assessed as M7 metabolite formation in heart at 50 mg/kg, ip after 3 hrs by LC-MS/MS analysis. The data set is classed as ADME, organism-based. The note with it: in vivo.

In the case of `CCCCC(=O)C1c2ccccc2NC2=C(C(=O)CCC2)C1c1ccccc1Cl` (configuration not stated), the concentration at 3 h in [1] is 210 ng/g; in [2], 3540 ng/g; in data set [3] it was 5730 ng/g; in [4], 11500 ng/g; in [5], 3180 ng/g; in data set [6], 4170 ng/g. The concentration at 3 h in data set [7] is 3950 ng/mL. Moreover, the Drug metabolism result was “Metabolite_Detected” in data set [8]; “Metabolite_Detected” in data set [9]; 147.5 ng/mL in data set [10]; 145.5 ng/g in [11]; 350.6 ng/g in data set [12]; 2531.5 ng/g in data set [13]. The Drug metabolism in [14] worked out at 47.7 ng/g; in data set [15], 52.8 ng/g; in data set [16] it was 656.2 ng/mL; in data set [17] it was 17 ng/g; in data set [18] it was 413 ng/g; in data set [19] it was 839.9 ng/g. The results for the Drug metabolism in data set [20], in data set [21] and in data set [22] were 2822.9 ng/g, 487.4 ng/g and 472.6 ng/g, respectively.

Source of the values: ChEMBL document CHEMBL3870328, “Synthesis of novel Ral inhibitors: An in vitro and in vivo study” (Bioorg Med Chem Lett, 2016).
